Tested on: L. infantum (LV50 and Drep-14) and L. major (Empa-12) promastigotes
Assay: MTT promastigote viability assay, stated across the three strains
Assay type: cell-based, Leishmania infantum, Leishmania major
Conditions: three strains, 72 h, at the tested concentrations
Text: Three Tunisian laboratory strains already described ([Oualha et al., 2019]), originally isolated from distinct clinical manifestations were used in this study: (i) L. infantum LV50 MHOM/TN/94/LV50) strain originating from a bone marrow of a visceral leishmaniasis patient, (ii) L. infantum Drep-14 (MHOM/TN/96/Drep-14) strain isolated from a lesion of a sporadic cutaneous leishmaniasis patient and (iii) L. major Empa-12 (MHOM/TN/2012/Empa-12) strain isolated from a zoonotic cutaneous leishmaniasis patient. Stocks of these parasites obtained after passage through BALB/c mice were used as previously described ([Oualha et al., 2019]). Thawed cryopreserved parasites were cultured at 22°C in RPMI-1640/Glutamax medium (Gibco BRL, Germany) containing penicillin (100 U/mL) and streptomycin (100 μg/mL) supplemented with 10% heat-inactivated Fetal Bovine Serum (FBS) (Gibco BRL, Germany).
The effect of the selected compounds on the viability of Leishmania promastigotes was evaluated by a colorimetric MTT (3-(4,5-dimethylthiazol-2yl)-2,5-diphenyl tetrazolium bromide) assay. It consists in the reduction of tetrazolium salt to a […] crystal (blue formazan) by the succinate dehydrogenase activity of mitochondria in living cells, which can be quantified by spectrophotometry. Briefly, 90 μL of promastigotes (5 × 10^5 parasites/well) harvested from the stationary growth phase of each strain were added to a 96-well culture plate and incubated with 10 μL of a range of serial dilutions of the selected compounds in technical replicates (final concentration of 1% DMSO per well) ([Ioset et al., 2009]; [Harigua-Souiai et al., 2018]). […] After 72h of incubation at 22°C, 25 μl of MTT solution (5 mg/mL) was added to each well and incubated at 22°C for 4h. Then, 150 μl of DMSO was added to each well to dissolve the blue formazan and the optical density (OD) was measured at 570 nm with a microplate reader ([…], Labsystems). Promastigotes incubated in complete medium containing 1% DMSO were used as negative control. The standard anti-Leishmania drug, Amphotericin B was used as a positive control. All experiments were performed in two technical replicates and repeated three times in independent experiments. The mean percentage of promastigotes viability was calculated from the Optical Density at 570 nm as follows:
Promastigote viability (%)= [(ODcompound− ODblank)/(ODnegative control −ODblank)]*100
Results were expressed as the mean value of the percentage of promastigotes viability ± standard deviation (SD).

**Q.** How did the “Effect on promastigote viability” value turn out when `CCCSc1ccc2nc(NC(=O)OC)[nH]c2c1` [Albendazole] was run?
**A.** The value was “no effectiveness”.

**Q.** For `NS(=O)(=O)c1cc2c(cc1Cl)N=C(CSCc1ccccc1)NS2(=O)=O` [Benzthiazide], which “Effect on promastigote viability” value is on record?
**A.** The value was “no effectiveness”.

**Q.** For `C=C(CC)C(=O)c1ccc(OCC(=O)O)c(Cl)c1Cl` [Ethacrynic acid], which “Effect on promastigote viability” value is on record?
**A.** The value was “no effectiveness”.

**Q.** For `CCc1cc(C(N)=S)ccn1` [Ethionamide], which “Effect on promastigote viability” value is on record?
**A.** The value was “no effectiveness”.

**Q.** Which “Effect on promastigote viability” value does the source give for `Nc1nc(O)c2ncn(COC(CO)CO)c2n1` [Ganciclovir] here?
**A.** The value was “no effectiveness”.

— publication PMC11464777, “Approved drugs successfully repurposed against Leishmania based on machine learning predictions” (Frontiers in Cellular and Infection Microbiology, 2024)
